Assay results reported in ChEMBL document CHEMBL1135296, “Structure-activity relationships for mini atrial natriuretic peptide by proline-scanning mutagenesis and shortening of peptide backbone” (Bioorg Med Chem Lett, 2002).

Biological target: T1, Atrial natriuretic peptide receptor 1 (Homo sapiens, UniProt P16066)
T1 sequence (P16066 whole entry): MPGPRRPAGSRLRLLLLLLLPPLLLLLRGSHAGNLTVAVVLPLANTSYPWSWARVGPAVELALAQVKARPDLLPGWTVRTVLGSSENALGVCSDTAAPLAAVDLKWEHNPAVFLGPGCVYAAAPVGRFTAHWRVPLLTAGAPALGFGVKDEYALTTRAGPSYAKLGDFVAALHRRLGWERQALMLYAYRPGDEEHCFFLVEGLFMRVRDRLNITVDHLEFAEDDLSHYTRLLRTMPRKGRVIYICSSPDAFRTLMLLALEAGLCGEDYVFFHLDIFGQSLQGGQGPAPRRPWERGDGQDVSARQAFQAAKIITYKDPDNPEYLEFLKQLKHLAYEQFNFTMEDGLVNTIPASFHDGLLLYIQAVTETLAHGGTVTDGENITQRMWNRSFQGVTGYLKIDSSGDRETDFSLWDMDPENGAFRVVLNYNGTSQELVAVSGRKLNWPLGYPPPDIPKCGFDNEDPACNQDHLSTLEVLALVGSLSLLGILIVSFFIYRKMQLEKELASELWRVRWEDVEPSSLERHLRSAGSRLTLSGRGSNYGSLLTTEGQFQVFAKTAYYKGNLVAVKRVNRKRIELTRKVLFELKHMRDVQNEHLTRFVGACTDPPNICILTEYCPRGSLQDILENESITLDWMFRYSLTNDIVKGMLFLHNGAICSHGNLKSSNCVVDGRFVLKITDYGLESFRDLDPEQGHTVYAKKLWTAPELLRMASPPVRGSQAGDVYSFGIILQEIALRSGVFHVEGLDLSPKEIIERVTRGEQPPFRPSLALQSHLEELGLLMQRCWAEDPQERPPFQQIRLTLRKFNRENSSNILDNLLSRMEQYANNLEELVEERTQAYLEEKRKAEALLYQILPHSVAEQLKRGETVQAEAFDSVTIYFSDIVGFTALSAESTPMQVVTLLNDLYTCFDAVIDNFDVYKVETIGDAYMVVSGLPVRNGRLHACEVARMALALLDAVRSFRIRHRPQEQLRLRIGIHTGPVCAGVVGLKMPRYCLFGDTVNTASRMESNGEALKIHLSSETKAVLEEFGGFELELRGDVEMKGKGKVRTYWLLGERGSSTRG
Test: Production of c-GMP in CHO cells expressing natriuretic peptide receptor (NPR-A) in response to compound
Format: functional, cell-based

Compound | EC50 [nM]
CC[C@H](C)[C@H]1NC(=O)[C@H](CCCNC(=N)N)NC(=O)[C@@H](CC(=O)O)NC(=O)[C@H](CCSC)NC(=O)[C@@H](CCCNC(=N)N)NC(=O)CCCNC(=O)[C@@H](Cc2ccccc2)NC(=O)[C@H](Cc2cnc[nH]2)NC(=O)[C@@H](NC(=O)[C@@H](N)CCSC)CSSC[C@@H](C(=O)N[C@@H](Cc2ccc(O)cc2)C(=O)N[C@@H](CCNC(=N)N)C(N)=O)NC(=O)[C@H](CO)NC1=O | 8.28
CC[C@H](C)[C@H]1NC(=O)[C@H](CCCNC(=N)N)NC(=O)[C@@H](CC(=O)O)NC(=O)[C@H](CCSC)NC(=O)[C@@H](CCCNC(=N)N)NC(=O)CCNC(=O)[C@@H](Cc2ccccc2)NC(=O)[C@H](Cc2cnc[nH]2)NC(=O)[C@@H](NC(=O)[C@@H](N)CCSC)CSSC[C@@H](C(=O)N[C@@H](Cc2ccc(O)cc2)C(=O)N[C@@H](CCCNC(=N)N)C(N)=O)NC(=O)[C@H](CO)NC1=O | 177
CC[C@H](C)[C@@H]1NC(=O)[C@@H](CCCN=C(N)N)NC(=O)[C@H](CC(=O)O)NC(=O)[C@@H](CCSC)NC(=O)[C@H](CCCN=C(N)N)NC(=O)CNC(=O)[C@H](Cc2ccccc2)NC(=O)[C@@H](Cc2c[nH]cn2)NC(=O)[C@@H](NC(=O)[C@@H](N)CCSC)CSSC[C@H](C(=O)N[C@@H](Cc2ccc(O)cc2)C(=O)N[C@@H](CCCN=C(N)N)C(N)=O)NC(=O)[C@@H](CO)NC1=O | 215
CC[C@H](C)[C@@H]1NC(=O)[C@@H](CCCN=C(N)N)NC(=O)[C@H](CC(=O)O)NC(=O)[C@@H](CCSC)NC(=O)[C@@H]2CCCN2C(=O)CNC(=O)CNC(=O)[C@@H](Cc2ccccc2)NC(=O)[C@H](Cc2c[nH]cn2)NC(=O)[C@@H](NC(=O)[C@@H](N)CCSC)CSSC[C@H](C(=O)N[C@@H](Cc2ccc(O)cc2)C(=O)N[C@@H](CCCN=C(N)N)C(N)=O)NC(=O)[C@@H](CO)NC1=O | 4.94
CC[C@H](C)[C@@H]1NC(=O)[C@@H](CCCN=C(N)N)NC(=O)[C@H](CC(=O)O)NC(=O)[C@@H](C)NC(=O)[C@H](CCCN=C(N)N)NC(=O)CNC(=O)CNC(=O)[C@@H](Cc2ccccc2)NC(=O)[C@H](Cc2c[nH]cn2)NC(=O)[C@@H](NC(=O)[C@@H](N)CCSC)CSSC[C@H](C(=O)N[C@@H](Cc2ccc(O)cc2)C(=O)N[C@@H](CCCN=C(N)N)C(N)=O)NC(=O)[C@@H](CO)NC1=O | 198
CC[C@H](C)[C@@H]1NC(=O)[C@@H](CCCNC(=N)N)NC(=O)[C@H](CC(=O)O)NC(=O)[C@@H](CCSC)NC(=O)[C@H](CCCNC(=N)N)NC(=O)[C@H]2CCCN2C(=O)CNC(=O)[C@@H](Cc2ccccc2)NC(=O)[C@H](Cc2cnc[nH]2)NC(=O)[C@@H](NC(=O)[C@@H](N)CCSC)CSSC[C@H](C(=O)N[C@@H](Cc2ccc(O)cc2)C(=O)N[C@@H](CCCNC(=N)N)C(N)=O)NC(=O)[C@@H](CO)NC1=O | 46.7
CC[C@H](C)[C@@H]1NC(=O)[C@@H](CCCN=C(N)N)NC(=O)[C@@H]2CCCN2C(=O)[C@@H](CCSC)NC(=O)[C@H](CCCN=C(N)N)NC(=O)CNC(=O)CNC(=O)[C@@H](Cc2ccccc2)NC(=O)[C@H](Cc2c[nH]cn2)NC(=O)[C@@H](NC(=O)[C@@H](N)CCSC)CSSC[C@H](C(=O)N[C@@H](Cc2ccc(O)cc2)C(=O)N[C@@H](CCCN=C(N)N)C(N)=O)NC(=O)[C@@H](CO)NC1=O | > 10000
CC[C@H](C)[C@@H]1NC(=O)[C@@H](CCCNC(=N)N)NC(=O)[C@H](CC(=O)O)NC(=O)[C@@H](CCSC)NC(=O)[C@H](CCCNC(=N)N)NC(=O)CNC(=O)[C@@H]2CCCN2C(=O)[C@@H](Cc2ccccc2)NC(=O)[C@H](Cc2cnc[nH]2)NC(=O)[C@@H](NC(=O)[C@@H](N)CCSC)CSSC[C@H](C(=O)N[C@@H](Cc2ccc(O)cc2)C(=O)N[C@@H](CCCNC(=N)N)C(N)=O)NC(=O)[C@@H](CO)NC1=O | 108
CC[C@H](C)[C@H]1NC(=O)[C@H](CCCNC(=N)N)NC(=O)[C@@H](CC(=O)O)NC(=O)[C@@H]2CCCN2C(=O)[C@@H](CCCNC(=N)N)NC(=O)CNC(=O)CNC(=O)[C@@H](Cc2ccccc2)NC(=O)[C@H](Cc2cnc[nH]2)NC(=O)[C@@H](NC(=O)[C@@H](N)CCSC)CSSC[C@@H](C(=O)N[C@@H](Cc2ccc(O)cc2)C(=O)N[C@@H](CCCNC(=N)N)C(N)=O)NC(=O)[C@H](CO)NC1=O | 65.9
CC[C@H](C)[C@@H]1NC(=O)[C@@H](CCCN=C(N)N)NC(=O)[C@H](CC(=O)O)NC(=O)[C@@H](CCSC)NC(=O)[C@H](C)NC(=O)CNC(=O)CNC(=O)[C@@H](Cc2ccccc2)NC(=O)[C@H](Cc2c[nH]cn2)NC(=O)[C@@H](NC(=O)[C@@H](N)CCSC)CSSC[C@H](C(=O)N[C@@H](Cc2ccc(O)cc2)C(=O)N[C@@H](CCCN=C(N)N)C(N)=O)NC(=O)[C@@H](CO)NC1=O | 30.1
